Several values for one entry are separate records, joined by “and”; a condition that tells them apart may be missing. Equal entries are not always repeated. One block for each compound: values may come before it.
How the values were obtained:
Format in all cases: cell-based
Neuro2a cells = test: MTT cytotoxicity assay; conditions: for MTT cell viability, compound alone, Fig. 3f: Neuro2a, final small molecule concentration 10 µM, 24 h, vehicle = 100% viable, individual replicates, 10 µM
Description: (§1) In all, 90 µL of Neuro2a cells were plated on clear 96 well plates (Falcon 353072) at 6000 cells per well and given 24 h to adhere to the plate. Subsequent treatment consisted of PHF samples that were co-incubated with or without 100 µM of small molecules for 48 h at 37 °C, with 10 µl applied per well for a final small molecule concentration of 10 µM. After another 24-h incubation at 37 °C, 20 µl of Thiazolyl Blue Tetrazolium Bromide MTT dye (Sigma; 5 mg/ml stock in DPBS) was added to each well and further incubated for 3.5 h at 37 °C. The assay was arrested by replacement of all media with 100% DMSO and transferred to a SpectraMax MF reader. Background 700 nm readings were subtracted from the absorbance readings at 570 nm. Cells treated with 100% DMSO were designated as 0% viable and those treated only with vehicle were designated as 100% viable. Other well readings were normalized to these values.

MTT cytotoxicity assay = conditions: mouse, Neuro2a cells, Neuro2a; final small molecule concentration 10 µM; 24 h; vehicle = 100% viable; individual replicates; read-out: MTT cell viability, compound alone, Fig. 3f
Description: as §1

[1] = molecular target: crude AD brain extracts (tau seeds) in HEK293T tau biosensor cells (Homo sapiens, UniProt P10636); test: Tau biosensor cell seeding assay, screen with crude AD brain extracts; conditions: 10 μM inhibitor on cells, seeds pre-incubated 16–18 h at 4 °C, individual replicates (n=3), DMSO control 10734.9/12808.5/11145.3
Sequence of crude AD brain extracts (tau seeds) in HEK293T tau biosensor cells (P10636 623-695 limits assumed): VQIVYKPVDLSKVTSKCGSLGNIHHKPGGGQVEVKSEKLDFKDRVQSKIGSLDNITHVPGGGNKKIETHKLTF
Text: From the in silico screen, compounds were ranked and 46 were selected for further experimental validation based on the total binding energy of the ligand/fibril complex. The experimental assessment consisted of direct measures of fibril disassembly (Fig. 2d, e and Supplementary Table 3) and assessment of the seeding capability of the products of disassembled AD tau fibrils in a biosensor cell assay. Disaggregating molecules that produce active seeds are undesirable for therapy and are excluded from further study. HEK293T cells expressing CFP- or YFP-fused tau are transduced with exogenous AD tau fibrils. Externally applied AD-tau fibrils then induce the aggregation of the endogenous fluorescent tau, resulting in the formation of FRET-positive intracellular aggregates, visible as bright puncta by fluorescence microscopy (Fig. 2f). Automated image analysis of visible puncta provides an objective quantification of seeded aggregation. […] Although biosensors may be limited in reporting structural characteristics of fibril progeny, they offer exquisitely sensitive measures of tau seeding activity—the ability for fibrils to recruit monomeric protein into fibrillar form, which is thought to be the mechanism for tau spreading in AD.
(§2) Human autopsy samples were obtained by the Mayo Clinic Brain Bank and UCLA Pathology Department according to HHS regulations from patients consenting to autopsy. Samples were provided to the researchers of this study as anonymized tissues. For purification of paired helical filaments (PHFs) and straight filaments (SFs) from AD brain tissue, extractions were performed according to the previously published protocol without any modifications. […] For biosensor seeding assays with crude AD brain extracts, fresh-frozen tissue from neuropathologically confirmed AD cases was thawed and cut into a 0.2–0.3 g sections. Tissue was manually homogenized in a 15 ml disposable tube in 1 ml of 50 mM Tris, pH 7.4 with 150 mM NaCl, and then aliquoted to PCR tubes and sonicated in a cuphorn bath for 120 min under 30% power at 4 °C in a recirculating ice water bath, according to reference.
(§3) HEK293T cell lines stably expressing tau-K18 P301S-eYFP were obtained from Marc Diamond[25] and used without further characterization or authentication. […] Inhibitors were dissolved in DMSO. […] After twenty minutes, 10 µl of fibrils were added to 90 µl of tau biosensor cells. The number of seeded aggregates was determined by imaging the entire well of a 96-well plate in triplicate using a Celigo Image Cytometer (Nexcelom) in the YFP channel. The number of aggregates in a given image was determined using an ImageJ 2.3.0[50] script, which subtracts the background fluorescence from unseeded cells, and then counts the number of aggregates as peaks with fluorescence above the background using the built-in Particle Analyzer. The number of aggregates was normalized to the confluence of each well, and dose-response plots were generated by calculating the average and standard deviations from triplicate measurements.

[2] = molecular target: brain-purified AD-tau fibrils in HEK293T tau biosensor cells (Homo sapiens, UniProt P10636); test: Tau biosensor cell seeding assay, dose-dependent inhibition with brain-purified AD-tau fibrils; conditions: individual replicates
Sequence of brain-purified AD-tau fibrils in HEK293T tau biosensor cells (P10636 623-695 limits assumed): as above
Description: as §2, §3

SMILES: O=C1c2ccccc2C(=O)N1c1nc2nccc(-c3ccccc3)n2n1 [CNS-2, 2-(7-phenyl[1,2,4]triazolo[1,5-a]pyrimidin-2-yl)-1H-isoindole-1,3(2H)-dione]
- MTT cell viability, compound alone, Fig. 3f (Neuro2a cells): 89.5134% and 84.5916%
- viability at 24 h, 10 µM (MTT cytotoxicity assay): 97.5%

SMILES: O=C(O)c1cc(=O)c2c(OCC(O)COc3cccc4oc(C(=O)O)cc(=O)c34)cccc2o1 [FDA-R-23, Sodium chromoglycate]
- Number of seeded aggregates in tau biosensor cells (normalized to confluence), Fig. 2e ([1]; listed as cromolyn sodium): 8238.89 and 9556.51 and 14800.8

SMILES: COc1ccc2c(c1)C(=O)N(CCc1ccc(S(=O)(=O)NC(=O)NC3CCCCC3)cc1)C(=O)C2(C)C [FDA-R-2, Gliquidone]
- Number of seeded aggregates in tau biosensor cells (normalized to confluence), Fig. 2e [1]: 7523.16 and 6557.51 and 13245

SMILES: CC(=O)c1ccc(S(=O)(=O)NC(=O)NC2CCCCC2)cc1 [FDA-R-8, Acetohexamide]
- Number of seeded aggregates in tau biosensor cells (normalized to confluence), Fig. 2e ([1]; listed as acetohexamide aka Dymelor): 9289.39 and 6525.19 and 13238.7

SMILES: Cc1cc(C)cc(N2C(=O)N(c3cccc(Cl)c3)C3CS(=O)(=O)CC32)c1 (stereo not drawn) [CNS-12, 1-(3-chlorophenyl)-3-(3,5-dimethylphenyl)tetrahydro-1H-thieno[3,4-d]imidazol-2(3H)-one 5,5-dioxide]
- MTT cell viability, compound alone, Fig. 3f (Neuro2a cells): 107.797% and 97.7194% and 77.9839%

SMILES: CC1=NN(c2ccc(C)c(C)c2)C(=O)/C1=N\Nc1cccc(-c2cccc(C(=O)O)c2)c1O [FDA-A-15, Eltrombopag]
- Number of seeded aggregates in tau biosensor cells (normalized to confluence), Fig. 2e [1]: 3758.35 and 8279.6 and 8614.09

SMILES: CCC(NC(C)C)C(O)c1ccc(O)c(O)c1 (stereo not drawn) [FDA-R-14, Isoetharine]
- Number of seeded aggregates in tau biosensor cells (normalized to confluence), Fig. 2e ([1]; listed as Isoetharine mesylate): 7986.42 and 10421.3 and 17350.6

SMILES: CC1=C(C/C=C(\C)CCC[C@H](C)CCC[C@H](C)CCCC(C)C)C(=O)c2ccccc2C1=O [FDA-R-9, Phytonadione]
- Number of seeded aggregates in tau biosensor cells (normalized to confluence), Fig. 2e [1]: 7414.6 and 8137.54 and 11548.1

SMILES: Cc1cc(C)c(NC(=O)Cn2nc3c4c(cccc4c2=O)-c2ccccc2-3)c(C)c1 [CNS-11, N-mesityl-2-(3-oxoindeno[1,2,3-de]phthalazin-2(3H)-yl)acetamide]
- Neuronal cytotoxicity of compound (Neuro2a cells; Neuro 2a (N2a) cells, MTT): significant cytotoxicity
- MTT cell viability, compound alone, Fig. 3f (Neuro2a cells): 62.1272% and 57.0691%
- viability at 24 h, 10 µM (MTT cytotoxicity assay): 60.2%

SMILES: O=C(NC1CCN(CCCCC2(C(=O)NCC(F)(F)F)c3ccccc3-c3ccccc32)CC1)c1ccccc1-c1ccc(C(F)(F)F)cc1 [FDA-A2, Lomitipide]
- Number of seeded aggregates, Supp. Fig. 7 ([2]; inhibitor concentration 1 (µM)): 9648.53 and 7383.58 and 7455.51
- Number of seeded aggregates, Supp. Fig. 7 ([2]; inhibitor concentration 2 (µM)): 5514.78 and 9418.9 and 7841.07
- Number of seeded aggregates, Supp. Fig. 7 ([2]; inhibitor concentration 5 (µM)): 11341.6 and 15697.2 and 9575.47
- Number of seeded aggregates, Supp. Fig. 7 ([2]; inhibitor concentration 10 (µM)): 4892.73 and 7401.62 and 3914.28
- Number of seeded aggregates, Supp. Fig. 7 ([2]; inhibitor concentration 40 (µM)): 2.016 and 15.6712 and 4.096
- Number of seeded aggregates in tau biosensor cells (normalized to confluence), Fig. 2e ([1]; listed as lomitapide): 1844.31 and 2433.57 and 2611.16

SMILES: CC(C)OC(=O)CCC/C=C\C[C@@H]1[C@@H](/C=C/[C@@H](O)COc2cccc(C(F)(F)F)c2)[C@H](O)C[C@@H]1O [FDA-R-18, Travoprost]
- Number of seeded aggregates in tau biosensor cells (normalized to confluence), Fig. 2e [1]: 5152.95 and 6033.26 and 10826.5

Other lines, results leading:

- Number of seeded aggregates in tau biosensor cells (normalized to confluence), Fig. 2e ([1]; listed as 7729218): 7077.98 and 8551.58 and 10715.2
SMILES: Cc1ccc(N2C(=O)CC(n3cnc4ccccc43)C2=O)c(C)c1 (stereo not drawn) [CNS-22, 3-(1H-benzimidazol-1-yl)-1-(2,4-dimethylphenyl)-2,5-pyrrolidinedione]

- Number of seeded aggregates in tau biosensor cells (normalized to confluence), Fig. 2e ([1]; listed as 5876327): 13235.2 and 9679.79 and 19134.9
SMILES: COc1ccccc1NC(=O)c1cc2c(ccc3ccccc32)oc1=O [CNS-25, N-(2-methoxyphenyl)-3-oxo-3H-benzo[f]chromene-2-carboxamide]

Source: publication PMC9481533, “Structure-based discovery of small molecules that disaggregate Alzheimer’s disease tissue derived tau fibrils in vitro” (Nature Communications, 2022)
